One assay concerns the target T1, murine SR-BI (Mus musculus, UniProt Q61009).
T1 construct: expressed in transfected cells; host or cells: ldlA-7 (LDL receptor deficient Chinese hamster ovary cells)
T1 sequence (Q61009 1-509): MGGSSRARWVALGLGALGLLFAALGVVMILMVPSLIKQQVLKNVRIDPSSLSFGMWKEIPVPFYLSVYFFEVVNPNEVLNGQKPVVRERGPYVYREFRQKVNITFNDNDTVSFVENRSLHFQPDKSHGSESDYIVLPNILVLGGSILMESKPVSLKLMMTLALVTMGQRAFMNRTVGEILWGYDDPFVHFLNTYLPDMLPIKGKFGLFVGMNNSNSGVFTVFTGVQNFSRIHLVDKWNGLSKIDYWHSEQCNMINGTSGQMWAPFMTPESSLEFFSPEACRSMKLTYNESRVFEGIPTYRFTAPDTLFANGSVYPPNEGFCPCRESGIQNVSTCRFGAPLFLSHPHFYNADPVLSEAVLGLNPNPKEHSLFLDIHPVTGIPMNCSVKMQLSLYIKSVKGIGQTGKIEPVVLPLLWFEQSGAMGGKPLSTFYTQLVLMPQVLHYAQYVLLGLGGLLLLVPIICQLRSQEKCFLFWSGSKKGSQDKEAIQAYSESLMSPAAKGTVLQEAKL
Description: Uptake of DiI from DiI-HDL by ldlA[mSR-BI] cells (high throughput screen and concentration dependence). It is filed as cell-based. The settings on record: Test 1.
On to `Cc1cccc(N2C(=O)CN(C3CCOCC3)C2=O)c1` [MIT 9952-2], for which the “ENDOHDL Test 1” value was determined as 1.34.
The same measure, in the same setting: the result for `O=C1CC(N2CCOCC2)C(=O)N1c1ccc(Br)cc1` (stereo not shown) [MIT 9952-3] reads 1.32.
Same read-out and setting: the result for `O=C(Cl)c1ccccc1NS(=O)(=O)/C=C/c1ccccc1` [MIT 9952-4] reads 1.17; that for `O=C(/C=C/c1ccccc1)NC(NC(=S)Nc1cccc([N+](=O)[O-])c1)C(Cl)(Cl)Cl` (stereo not shown) [MIT 9952-7], 0.5; that for `CC(CC(=O)NCCc1c[nH]c2ccccc12)C(=O)Cl` (stereo not shown) [MIT 9952-12], 1.25.
For `CC(=O)Oc1ccc2ccccc2c1C=O` [MIT 9952-13], the “ENDOHDL Test 1” value stood at 0.55.
As for `COc1ccc2nc(C(=O)[O-])sc2c1.[Na+]` [MIT 9952-14], the “ENDOHDL Test 1” value came out at 1.24.
With `Nc1nc(-c2ccccc2)nc2sc3c(c12)CCCC3` [MIT 9952-15], the “ENDOHDL Test 1” value was found to be 0.55.
The same measure, in the same setting: the result for `COc1ccc(N2C(=O)CC(N3CCCCC3)C2=O)cc1` (stereo not shown) [MIT 9952-16] reads 1.25; that for `O=C1CC(N2CCOCC2)C(=O)N1c1ccc(Br)cc1` (stereo not shown) [MIT 9952-17], 1.32; that for `O=C(Cl)CCNC(=O)c1ccccc1` [MIT 9952-18], 1.21.
Turning to `Cc1nc(Cl)c(C(c2cc([N+](=O)[O-])ccc2Cl)c2c(Cl)nc(C)nc2Cl)c(Cl)n1` [MIT 9952-22], the “ENDOHDL Test 1” value was 1.27.
The same measure, in the same setting: the result for `Cl.NCCc1nc2ccccc2[nH]1` [MIT 9952-25] reads 1.21; that for `CCCCN1CCC(Cl)(c2ccccc2)C(C(=O)c2ccccc2)C1` (stereo not shown) [MIT 9952-26], 1.28.
On the same count and under the same terms, the result for `O=C(COc1ccc(Cl)cc1)N/N=C/c1ccc(Cl)cc1` [MIT 9952-31] reads 1.33; that for `O=C(Nc1ccc(C2Nc3ccc(SC(=O)c4ccc(Cl)cc4)c(Cl)c3S2)cc1)c1ccc(Cl)cc1` (stereo not shown) [MIT 9952-35], 0.56; that for `Cc1cc(C(=O)N/C=C\c2c(Cl)ccc3ccccc23)[nH]n1` [MIT 9952-38], 0.34.
In the case of `COc1ccc(COCC(Cl)CN2CCCCC2)cc1OC.Cl` (stereo not shown) [MIT 9952-40], the “ENDOHDL Test 1” value is recorded as 1.28.
On the same count and under the same terms, the value for `O=C(Cl)c1ccc2c(c1)C(=O)N(c1ccc(-c3ccnc(-c4ccc(N5C(=O)c6ccc(C(=O)Cl)cc6C5=O)cc4)n3)cc1)C2=O` [MIT 9952-42] was 1.27; that for `O=C(Nc1ccc(Cl)cc1C(=O)c1ccc(Cl)cc1)c1cc(Cl)ccc1NS(=O)(=O)c1ccc(Cl)cc1` [MIT 9952-45] was 0.44; that for `O=C(CC1=CCCCC1)Nc1cc([N+](=O)[O-])ccc1Cl` [MIT 9952-46] was 1.32.
Turning to `CC(C)(C)c1ccc(C(=O)Nc2ccccc2C(=O)Cl)cc1` [MIT 9952-47], the “ENDOHDL Test 1” value is 1.18.
For `CC(C)(C)c1ccc(C(=O)Nc2ccccc2C(=O)O)cc1` [MIT 9952-48], the “ENDOHDL Test 1” value came to 0.68.
Still for that read-out and setting: the value for `C=C(N/N=C(\C)c1ccccc1C(=O)O)c1ccccc1` [MIT 9952-56] was 1.26; that for `CCS(=O)(=O)C(=C(Nc1ccc(OC)cc1)Nc1ccc(OC)cc1)S(=O)(=O)CC` [MIT 9952-57] was 1.13; that for `[O-][n+]1onc2c3cc(-c4ccccc4)[nH]c3ccc21` [MIT 9952-59] was 0.35.

The assay is the same for the next values; noted with them: Test 2.
`Cc1cccc(N2C(=O)CN(C3CCOCC3)C2=O)c1` [MIT 9952-2]: the “ENDOHDL Test 2” value is 1.2.
The same measure, in the same setting: the result for `O=C1CC(N2CCOCC2)C(=O)N1c1ccc(Br)cc1` (stereo not shown) [MIT 9952-3] reads 1.17; that for `O=C(Cl)c1ccccc1NS(=O)(=O)/C=C/c1ccccc1` [MIT 9952-4], 1.33.
For `O=C(/C=C/c1ccccc1)NC(NC(=S)Nc1cccc([N+](=O)[O-])c1)C(Cl)(Cl)Cl` (stereo not shown) [MIT 9952-7], the “ENDOHDL Test 2” value is on record as 0.51.
The same measure, in the same setting: the result for `CC(CC(=O)NCCc1c[nH]c2ccccc12)C(=O)Cl` (stereo not shown) [MIT 9952-12] reads 1.26.
Same read-out and setting: the result for `CC(=O)Oc1ccc2ccccc2c1C=O` [MIT 9952-13] reads 0.67.
`COc1ccc2nc(C(=O)[O-])sc2c1.[Na+]` [MIT 9952-14]: the “ENDOHDL Test 2” value is listed as 1.21.
Still for that read-out and setting: the result for `Nc1nc(-c2ccccc2)nc2sc3c(c12)CCCC3` [MIT 9952-15] reads 0.61; that for `COc1ccc(N2C(=O)CC(N3CCCCC3)C2=O)cc1` (stereo not shown) [MIT 9952-16], 1.26.
On the same count and under the same terms, the result for `O=C1CC(N2CCOCC2)C(=O)N1c1ccc(Br)cc1` (stereo not shown) [MIT 9952-17] reads 1.17; that for `O=C(Cl)CCNC(=O)c1ccccc1` [MIT 9952-18], 1.22.
On the same count and under the same terms, the value for `Cc1nc(Cl)c(C(c2cc([N+](=O)[O-])ccc2Cl)c2c(Cl)nc(C)nc2Cl)c(Cl)n1` [MIT 9952-22] was 1.4.
Turning to `Cl.NCCc1nc2ccccc2[nH]1` [MIT 9952-25], the “ENDOHDL Test 2” value is recorded as 1.69.
On the same count and under the same terms, the value for `CCCCN1CCC(Cl)(c2ccccc2)C(C(=O)c2ccccc2)C1` (stereo not shown) [MIT 9952-26] was 1.32; that for `O=C(COc1ccc(Cl)cc1)N/N=C/c1ccc(Cl)cc1` [MIT 9952-31] was 1.17; that for `O=C(Nc1ccc(C2Nc3ccc(SC(=O)c4ccc(Cl)cc4)c(Cl)c3S2)cc1)c1ccc(Cl)cc1` (stereo not shown) [MIT 9952-35] was 0.56.
Same read-out and setting: the value for `Cc1cc(C(=O)N/C=C\c2c(Cl)ccc3ccccc23)[nH]n1` [MIT 9952-38] was 0.52.
Same read-out and setting: the result for `COc1ccc(COCC(Cl)CN2CCCCC2)cc1OC.Cl` (stereo not shown) [MIT 9952-40] reads 1.23; that for `O=C(Cl)c1ccc2c(c1)C(=O)N(c1ccc(-c3ccnc(-c4ccc(N5C(=O)c6ccc(C(=O)Cl)cc6C5=O)cc4)n3)cc1)C2=O` [MIT 9952-42], 1.21; that for `O=C(Nc1ccc(Cl)cc1C(=O)c1ccc(Cl)cc1)c1cc(Cl)ccc1NS(=O)(=O)c1ccc(Cl)cc1` [MIT 9952-45], 0.46.
Regarding `O=C(CC1=CCCCC1)Nc1cc([N+](=O)[O-])ccc1Cl` [MIT 9952-46], the “ENDOHDL Test 2” value amounted to 1.18.
The same measure, in the same setting: the value for `CC(C)(C)c1ccc(C(=O)Nc2ccccc2C(=O)Cl)cc1` [MIT 9952-47] was 1.37; that for `CC(C)(C)c1ccc(C(=O)Nc2ccccc2C(=O)O)cc1` [MIT 9952-48] was 0.49.
The same measure, in the same setting: the result for `C=C(N/N=C(\C)c1ccccc1C(=O)O)c1ccccc1` [MIT 9952-56] reads 1.26; that for `CCS(=O)(=O)C(=C(Nc1ccc(OC)cc1)Nc1ccc(OC)cc1)S(=O)(=O)CC` [MIT 9952-57], 1.25.
Regarding `[O-][n+]1onc2c3cc(-c4ccccc4)[nH]c3ccc21` [MIT 9952-59], the “ENDOHDL Test 2” value came to 0.44.

The record behind these values is patent publication US20040171073A1, “Compounds for modulation of cholesterol transport” (Massachusetts Institute of Technology, priority 2002, published 2004).
